Assay results reported in US12440484B2, “1,3,4-oxadiazole homophthalimide derivative compounds as histone deacetylase 6 inhibitor, and the pharmaceutical composition comprising the same” (Chong Kun Dang Pharmaceutical Corp., priority 2019, dated 2025).

Assays:
[1] = target: HDAC1 (Homo sapiens (Human), UniProt Q13547); assay: HDAC enzyme activity inhibition (in vitro), HDAC1 Fluorimetric Drug Discovery Assay Kit; format: biochemical; settings: samples at 100, 1000 and 10000 nM; 37° C. 60 minutes; fluorescence Ex 390, Em 460
[2] = target: HDAC6 human recombinant (Homo sapiens (Human), UniProt Q9UBN7); assay: HDAC enzyme activity inhibition (in vitro), HDAC6 assay; format: biochemical; settings: samples at 0.1, 1, 10, 100 and 1000 nM; 37° C. 60 minutes; fluorescence Ex 390, Em 460
Sequence of HDAC6 human recombinant (Q9UBN7 whole entry): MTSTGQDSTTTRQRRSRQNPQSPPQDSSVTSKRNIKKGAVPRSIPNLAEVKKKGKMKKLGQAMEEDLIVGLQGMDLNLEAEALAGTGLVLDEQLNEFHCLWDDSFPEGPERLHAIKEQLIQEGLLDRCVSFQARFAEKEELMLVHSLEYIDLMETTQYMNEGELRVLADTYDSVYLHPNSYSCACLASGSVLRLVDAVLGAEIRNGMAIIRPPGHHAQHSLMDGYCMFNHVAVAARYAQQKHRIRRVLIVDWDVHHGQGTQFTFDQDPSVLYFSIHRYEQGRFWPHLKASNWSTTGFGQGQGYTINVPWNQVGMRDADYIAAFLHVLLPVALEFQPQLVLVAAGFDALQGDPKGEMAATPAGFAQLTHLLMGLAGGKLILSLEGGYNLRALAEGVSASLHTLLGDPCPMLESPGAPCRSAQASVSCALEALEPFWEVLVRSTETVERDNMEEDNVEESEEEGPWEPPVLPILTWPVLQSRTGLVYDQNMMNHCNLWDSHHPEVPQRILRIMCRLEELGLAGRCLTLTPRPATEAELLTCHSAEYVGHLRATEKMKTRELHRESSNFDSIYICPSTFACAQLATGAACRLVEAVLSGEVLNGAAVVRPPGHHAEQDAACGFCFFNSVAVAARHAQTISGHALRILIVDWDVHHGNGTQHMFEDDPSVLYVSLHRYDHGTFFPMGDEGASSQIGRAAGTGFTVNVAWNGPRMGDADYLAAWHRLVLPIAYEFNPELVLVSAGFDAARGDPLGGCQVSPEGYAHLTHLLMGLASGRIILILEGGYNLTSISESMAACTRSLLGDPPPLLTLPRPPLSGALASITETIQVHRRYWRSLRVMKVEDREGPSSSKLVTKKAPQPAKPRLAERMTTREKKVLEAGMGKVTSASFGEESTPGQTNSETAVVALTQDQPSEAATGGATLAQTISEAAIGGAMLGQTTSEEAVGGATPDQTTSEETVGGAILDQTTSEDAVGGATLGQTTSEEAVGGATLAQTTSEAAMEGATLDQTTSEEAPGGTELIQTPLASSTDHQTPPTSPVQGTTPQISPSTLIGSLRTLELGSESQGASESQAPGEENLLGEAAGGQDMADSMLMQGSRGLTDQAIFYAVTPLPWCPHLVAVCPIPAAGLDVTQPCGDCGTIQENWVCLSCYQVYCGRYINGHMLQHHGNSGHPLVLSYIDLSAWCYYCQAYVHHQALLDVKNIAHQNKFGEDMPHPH

Sequence of HDAC1 (Q13547 whole entry): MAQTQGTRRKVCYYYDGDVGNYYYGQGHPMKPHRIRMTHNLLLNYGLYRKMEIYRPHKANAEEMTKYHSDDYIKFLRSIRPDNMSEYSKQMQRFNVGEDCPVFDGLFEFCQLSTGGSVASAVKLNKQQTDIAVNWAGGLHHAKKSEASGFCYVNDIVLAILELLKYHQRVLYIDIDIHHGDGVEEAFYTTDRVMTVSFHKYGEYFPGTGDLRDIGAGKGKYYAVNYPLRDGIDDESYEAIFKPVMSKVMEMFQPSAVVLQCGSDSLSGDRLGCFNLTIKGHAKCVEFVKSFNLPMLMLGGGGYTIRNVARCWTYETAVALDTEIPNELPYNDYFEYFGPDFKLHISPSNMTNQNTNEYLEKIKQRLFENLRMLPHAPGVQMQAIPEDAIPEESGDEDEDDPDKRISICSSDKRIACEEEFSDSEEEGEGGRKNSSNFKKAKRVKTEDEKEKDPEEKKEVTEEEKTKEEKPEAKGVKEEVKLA

| SMILES | IC50 [1] | IC50 [2] |
| --- | --- | --- |
| CC1(C)C(=O)N(Cc2ccc(-c3nnc(C(F)F)o3)cn2)C(=O)c2ccc(N3CCN(CC(=O)N4CCCC4)CC3)cc21 [Compound 33, 2-((5-(5-(difluoromethyl)-1,3,4-oxadiazole-2-yl)pyridine-2-yl)methyl)-4,4-dimethyl-6-(4-(2-oxo-2-(pyrrolidine-1-yl)ethyl)piperazine-1-yl)isoquinoline-1,3(2H,4H)-dione] | > 10000 nM | 34 nM |
| CC(=O)N1CCN(c2ccc3c(c2)C(C)(C)C(=O)N(Cc2ccc(-c4nnc(C(F)F)o4)cn2)C3=O)CC1 [Compound 34, 6-(4-acetylpiperazine-1-yl)-2-((5-(5-(difluoromethyl)-1,3,4-oxadiazole-2-yl)pyridine-2-yl)methyl)-4,4-dimethylisoquinoline-1,3(2H,4H)-dione] | > 10000 nM | 27 nM |
| COCCN1CCN(c2ccc3c(c2)C(C)(C)C(=O)N(Cc2ccc(-c4nnc(C(F)F)o4)cn2)C3=O)CC1 [Compound 35, 2-((5-(5-(difluoromethyl)-1,3,4-oxadiazole-2-yl)pyridine-2-yl)methyl)-6-(4-(2-methoxyethyl)piperazine-1-yl)-4,4-dimethylisoquinoline-1,3(2H,4H)-dione] | > 10000 nM | 26 nM |
| CC1(C)C(=O)N(Cc2ccc(-c3nnc(C(F)F)o3)cn2)C(=O)c2ccc(N3CCN(C(C)(C)C)CC3)cc21 [Compound 36, 6-(4-(tert-butyl)piperazine-1-yl)-2-((5-(5-(difluoromethyl)-1,3,4-oxadiazole-2-yl)pyridine-2-yl)methyl)-4,4-dimethylisoquinoline-1,3(2H,4H)-dione] | > 10000 nM | 24 nM |
| CN(C)C1CCN(c2ccc3c(c2)C(C)(C)C(=O)N(Cc2ccc(-c4nnc(C(F)F)o4)cn2)C3=O)CC1 [Compound 37, 2-((5-(5-(difluoromethyl)-1,3,4-oxadiazole-2-yl)pyridine-2-yl)methyl)-6-(4-(dimethylamino)piperidine-1-yl)-4,4-dimethylisoquinoline-1,3(2H,4H)-dione] | > 10000 nM | 15 nM |
| CN(C)CCN(C)c1ccc2c(c1)C(C)(C)C(=O)N(Cc1ccc(-c3nnc(C(F)F)o3)cn1)C2=O [Compound 38, 2-((5-(5-(difluoromethyl)-1,3,4-oxadiazole-2-yl)pyridine-2-yl)methyl)-6-((2-(dimethylamino)ethyl)(methyl)amino)-4,4-dimethylisoquinoline-1,3(2H,4H)-dione] | > 10000 nM | 24 nM |
| CCN1CCN(c2ccc3c(c2)C(C)(C)C(=O)N(Cc2ccc(-c4nnc(C(F)F)o4)cn2)C3=O)CC1 [Compound 39, 2-((5-(5-(difluoromethyl)-1,3,4-oxadiazole-2-yl)pyridine-2-yl)methyl)-6-(4-ethylpiperazine-1-yl)-4,4-dimethylisoquinoline-1,3(2H,4H)-dione] | > 10000 nM | 18 nM |
| CC1(C)C(=O)N(Cc2ccc(-c3nnc(C(F)F)o3)cn2)C(=O)c2ccc(N3CC4(COC4)C3)cc21 [Compound 40, 2-((5-(5-(difluoromethyl)-1,3,4-oxadiazole-2-yl)pyridine-2-yl)methyl)-4,4-dimethyl-6-(2-oxa-6-azaspiro[3.3]heptane-6-yl)isoquinoline-1,3(2H,4H)-dione] | > 10000 nM | 22 nM |
| CN1CC=C(c2ccc3c(c2)C(C)(C)C(=O)N(Cc2ccc(-c4nnc(C(F)F)o4)cn2)C3=O)CC1 [Compound 42, 2-((5-(5-(difluoromethyl)-1,3,4-oxadiazole-2-yl)pyridine-2-yl)methyl)-4,4-dimethyl-6-(1-methyl-1,2,3,6-tetrahydropyridine-4-yl)isoquinoline-1,3(2H,4H)-dione] | > 10000 nM | 35 nM |
| CC1(C)C(=O)N(Cc2ccc(-c3nnc(C(F)F)o3)cn2)C(=O)c2ccc(C3=CCN(C4COC4)CC3)cc21 [Compound 43, 2-((5-(5-(difluoromethyl)-1,3,4-oxadiazole-2-yl)pyridine-2-yl)methyl)-4,4-dimethyl-6-(1-(oxetan-3-yl)-1,2,3,6-tetrahydropyridine-4-yl)isoquinoline-1,3(2H,4H)-dione] | > 10000 nM | 38 nM |
| CN1CCC(c2ccc3c(c2)C(C)(C)C(=O)N(Cc2ccc(-c4nnc(C(F)F)o4)cn2)C3=O)CC1 [Compound 44, 2-((5-(5-(difluoromethyl)-1,3,4-oxadiazole-2-yl)pyridine-2-yl)methyl)-4,4-dimethyl-6-(1-methylpiperidine-4-yl)isoquinoline-1,3(2H,4H)-dione] | > 10000 nM | 19 nM |
| CCCCCN1CCN(c2ccc3c(c2)C(C)(C)C(=O)N(Cc2ccc(-c4nnc(C(F)F)o4)cn2)C3=O)CC1 [Compound 45, 2-((5-(5-(difluoromethyl)-1,3,4-oxadiazole-2-yl)pyridine-2-yl)methyl)-4,4-dimethyl-6-(4-pentylpiperazine-1-yl)isoquinoline-1,3(2H,4H)-dione] | > 10000 nM | 156 nM |
| CC1(C)C(=O)N(Cc2ccc(-c3nnc(C(F)F)o3)cn2)C(=O)c2ccc(N3CCN(C4CC4)CC3)cc21 [Compound 47, 6-(4-cyclopropylpiperazine-1-yl)-2-((5-(5-(difluoromethyl)-1,3,4-oxadiazole-2-yl)pyridine-2-yl)methyl)-4,4-dimethylisoquinoline-1,3(2H,4H)-dione] | > 10000 nM | 49 nM |
| CC1(C)C(=O)N(Cc2ccc(-c3nnc(C(F)F)o3)cn2)C(=O)c2ccc(N3CCN(CC4CCCCC4)CC3)cc21 [Compound 48, 6-(4-(cyclohexylmethyl)piperazine-1-yl)-2-((5-(5-(difluoromethyl)-1,3,4-oxadiazole-2-yl)pyridine-2-yl)methyl)-4,4-dimethylisoquinoline-1,3(2H,4H)-dione] | > 10000 nM | 342 nM |
| CC1(C)C(=O)N(Cc2ccc(-c3nnc(C(F)F)o3)cn2)C(=O)c2ccc(N3CC(F)(F)C3)cc21 [Compound 49, 6-(3,3-difluoroazetidine-1-yl)-2-((5-(5-(difluoromethyl)-1,3,4-oxadiazole-2-yl)pyridine-2-yl)methyl)-4,4-dimethylisoquinoline-1,3(2H,4H)-dione] | > 10000 nM | 41 nM |
| CC1(C)C(=O)N(Cc2ccc(-c3nnc(C(F)F)o3)cn2)C(=O)c2ccc(N3CCN(c4ncccn4)CC3)cc21 [Compound 50, 2-((5-(5-(difluoromethyl)-1,3,4-oxadiazole-2-yl)pyridine-2-yl)methyl)-4,4-dimethyl-6-(4-(pyrimidine-2-yl)piperazine-1-yl)isoquinoline-1,3(2H,4H)-dione] | > 10000 nM | 52 nM |
| CC1(C)C(=O)N(Cc2ccc(-c3nnc(C(F)F)o3)cn2)C(=O)c2cc(Br)ccc21 [Compound 51, 7-bromo-2-((5-(5-(difluoromethyl)-1,3,4-oxadiazole-2-yl)pyridine-2-yl)methyl)-4,4-dimethylisoquinoline-1,3(2H,4H)-dione] | > 10000 nM | 38 nM |
| CC1(C)C(=O)N(Cc2ccc(-c3nnc(C(F)F)o3)cn2)C(=O)c2cc(N3CCOCC3)ccc21 [Compound 52, 2-((5-(5-(difluoromethyl)-1,3,4-oxadiazole-2-yl)pyridine-2-yl)methyl)-4,4-dimethyl-7-morpholinoisoquinoline-1,3(2H,4H)-dione] | > 10000 nM | 40 nM |
| CC(C)(C)OC(=O)N1CC=C(c2ccc3c(c2)C(=O)N(Cc2ccc(-c4nnc(C(F)F)o4)cn2)C(=O)C3(C)C)CC1 [Compound 53, tert-butyl 4-(2-((5-(5-(difluoromethyl)-1,3,4-oxadiazole-2-yl)pyridine-2-yl)methyl)-4,4-dimethyl-1,3-dioxo-1,2,3,4-tetrahydroisoquinoline-7-yl)-3,6-dihydropyridine-1(2H)-carboxylate] | > 10000 nM | 427 nM |
| CN1CCC(c2ccc3c(c2)C(=O)N(Cc2ccc(-c4nnc(C(F)F)o4)cn2)C(=O)C3(C)C)CC1 [Compound 54, 2-((5-(5-(difluoromethyl)-1,3,4-oxadiazole-2-yl)pyridine-2-yl)methyl)-4,4-dimethyl-7-(1-methylpiperidine-4-yl)isoquinoline-1,3(2H,4H)-dione] | > 10000 nM | 42 nM |
| CC1(C)C(=O)N(Cc2ccc(-c3nnc(C(F)F)o3)cn2)C(=O)c2cc(C3CCN(C4COC4)CC3)ccc21 [Compound 55, 2-((5-(5-(difluoromethyl)-1,3,4-oxadiazole-2-yl)pyridine-2-yl)methyl)-4,4-dimethyl-7-(1-(oxetan-3-yl)piperidine-4-yl)isoquinoline-1,3(2H,4H)-dione] | > 10000 nM | 20 nM |
| CNC(=O)C1CCN(c2ccc3c(c2)C(C)(C)C(=O)N(Cc2ccc(-c4nnc(C(F)F)o4)cn2)C3=O)CC1 [Compound 56, 1-(2-((5-(5-(difluoromethyl)-1,3,4-oxadiazole-2-yl)pyridine-2-yl)methyl)-4,4-dimethyl-1,3-dioxo-1,2,3,4-tetrahydroisoquinoline-6-yl)-N-methylpiperidine-4-carboxamide] | > 10000 nM | 46 nM |
| CN(C)C(=O)C1CCN(c2ccc3c(c2)C(C)(C)C(=O)N(Cc2ccc(-c4nnc(C(F)F)o4)cn2)C3=O)CC1 [Compound 57, 1-(2-((5-(5-(difluoromethyl)-1,3,4-oxadiazole-2-yl)pyridine-2-yl)methyl)-4,4-dimethyl-1,3-dioxo-1,2,3,4-tetrahydroisoquinoline-6-yl)-N,N-dimethylpiperidine-4-carboxamide] | > 10000 nM | 32 nM |
| CC1(C)C(=O)N(Cc2ccc(-c3nnc(C(F)F)o3)cn2)C(=O)c2ccc(N3C[C@@H]4C[C@H]3CN4S(C)(=O)=O)cc21 [Compound 58, 2-((5-(5-(difluoromethyl)-1,3,4-oxadiazole-2-yl)pyridine-2-yl)methyl)-4,4-dimethyl-6-((1S,4S)-5-(methylsulfonyl)-2,5-diazabicyclo[2.2.1]heptane-2-yl)isoquinoline-1,3(2H,4H)-dione] | > 10000 nM | 14 nM |
